Test results: patent US10765114B2, “4-amino-6-(pyridyl and 2-substitutedphenyl)-picolinates and 6-amino-2-(pyridyl and 2-substitutedphenyl)-pyrimidine-4-carboxylates and their use as herbicides” (Dow AgroSciences LLC, priority 2013, dated 2020)
Where two headings read alike, the source gives them in different places.

How the values were obtained:
[1] = system: Key Broadleaf Weed and Crop Species; assay: Post-Emergent Test II (Table 5); type: in vivo; details: post-emergence, 336 h; for pest or weed control at 70 g/ha: application rate 70 (kg ai/ha; footnote: g ai/ha); for pest or weed control at 140 g/ha: application rate 140 (kg ai/ha; footnote: g ai/ha)
How it was run: (§1)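 Growth stage at treatment: first or second true leaf. Application: compound in acetone/DMSO diluted into an adjuvant-containing aqueous mix, sprayed at 187 L/ha at several rates. Assessment: visual 0-100% injury at 14 days against untreated plants.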

[2] = system: Key Grass and Sedge Weeds as well as Grass Crops; assay: Post-Emergent Test II (Table 6); type: in vivo; details: post-emergence, 336 h, 14 days after application; for pest or weed control at 70 g/ha: 70 g ai/ha; for pest or weed control at 140 g/ha: 140 g ai/ha
How it was run: as §1

[3] = Abutilon theophrasti, ABUTH: velvetleaf (Abutilon theophrasti), read-out: Visual Growth Reduction (%) 14 Days After Application ABUTH
[4] = Amaranthus retroflexus, AMARE: redroot pigweed (Amaranthus retroflexus), read-out: Visual Growth Reduction (%) 14 Days After Application AMARE
[5] = Brassica napus, BRSSS: oilseed rape, canola (Brassica napus), read-out: Visual Growth Reduction (%) 14 Days After Application BRSSS
[6] = Chenopodium album, CHEAL: lambsquarters (Chenopodium album), read-out: Visual Growth Reduction (%) 14 Days After Application CHEAL
[7] = Euphorbia heterophylla, EPHHL: wild poinsettia (Euphorbia heterophylla), read-out: Visual Growth Reduction (%) 14 Days After Application EPHHL
[8] = Helianthus annuus, HELAN: sunflower (Helianthus annuus), read-out: Visual Growth Reduction (%) 14 Days After Application HELAN
[9] = Viola tricolor, VIOTR: wild pansy (Viola tricolor), read-out: Visual Growth Reduction (%) 14 Days After Application VIOTR
[10] = CYPSS, read-out: Visual Growth Reduction (%) 14 Days After Application CYPSS
[11] = DIGSA: crabgrass (Digitaria sanguinalis), read-out: Visual Growth Reduction (%) 14 Days After Application DIGSA
[12] = ORYSS (crop), read-out: Visual Growth Reduction (%) 14 Days After Application ORYSS
[13] = SETFA: giant foxtail (Setaria faberi), read-out: Visual Growth Reduction (%) 14 Days After Application SETFA
[14] = SORVU: grain sorghum (Sorghum vulgare), read-out: Visual Growth Reduction (%) 14 Days After Application SORVU
[15] = TRZSS (crop), read-out: Visual Growth Reduction (%) 14 Days After Application TRZSS
[16] = ZEAMX: maize, corn (Zea mays), read-out: Visual Growth Reduction (%) 14 Days After Application ZEAMX

Structure (SMILES)	pest or weed control at 70 g/ha [1, 3] [%]	pest or weed control at 140 g/ha [1, 3] [%]	pest or weed control at 70 g/ha [1, 4] [%]	pest or weed control at 140 g/ha [1, 4] [%]	pest or weed control at 70 g/ha [1, 5] [%]	pest or weed control at 140 g/ha [1, 5] [%]	pest or weed control at 70 g/ha [1, 6] [%]	pest or weed control at 140 g/ha [1, 6] [%]	pest or weed control at 70 g/ha [1, 7] [%]	pest or weed control at 140 g/ha [1, 7] [%]	pest or weed control at 70 g/ha [1, 8] [%]	pest or weed control at 140 g/ha [1, 8] [%]	pest or weed control at 70 g/ha [1, 9] [%]	pest or weed control at 140 g/ha [1, 9] [%]	pest or weed control at 70 g/ha [2, 10] [%]	pest or weed control at 140 g/ha [2, 10] [%]	pest or weed control at 70 g/ha [2, 11] [%]	pest or weed control at 140 g/ha [2, 11] [%]	pest or weed control at 70 g/ha [2, 12] [%]	pest or weed control at 140 g/ha [2, 12] [%]	also measured
COC(=O)c1nc(-c2ccc(Cl)c(F)c2C)c(Cl)c(N)c1Cl [Compound 3]	60 to 74	60 to 74	95 to 100	95 to 100	0 to 29	0 to 29	60 to 74	75 to 84	0 to 29	0 to 29	75 to 84	75 to 84	0 to 29	0 to 29	0 to 29	0 to 29	0 to 29	0 to 29	0 to 29	0 to 29	pest or weed control at 70 g/ha [2, 13]: 0 to 29%; pest or weed control at 140 g/ha [2, 13]: 0 to 29%; pest or weed control at 70 g/ha [2, 14]: 0 to 29%; pest or weed control at 140 g/ha [2, 14]: 0 to 29%; pest or weed control at 70 g/ha [2, 15]: 0 to 29%; pest or weed control at 140 g/ha [2, 15]: 0 to 29%; pest or weed control at 70 g/ha [2, 16]: 0 to 29%; pest or weed control at 140 g/ha [2, 16]: 0 to 29%; melting point: 122 to 136 °C
COC(=O)c1nc(-c2ccc(Cl)c(F)c2Cl)cc(N)c1Cl [Compound 72]	95 to 100	95 to 100	95 to 100	95 to 100	85 to 94	95 to 100	95 to 100	95 to 100	85 to 94	85 to 94	75 to 84	85 to 94	95 to 100	95 to 100	95 to 100	95 to 100	75 to 84	75 to 84	0 to 29	0 to 29	pest or weed control at 70 g/ha [2, 13]: 75 to 84%; pest or weed control at 140 g/ha [2, 13]: 75 to 84%; pest or weed control at 70 g/ha [2, 14]: 60 to 74%; pest or weed control at 140 g/ha [2, 14]: 95 to 100%; pest or weed control at 70 g/ha [2, 15]: 45 to 59%; pest or weed control at 140 g/ha [2, 15]: 45 to 59%; pest or weed control at 70 g/ha [2, 16]: 60 to 74%; pest or weed control at 140 g/ha [2, 16]: 75 to 84%; melting point: 183 to 189 °C
